Results reported in patent US20240124432A1, “HERBICIDAL COMPOUNDS” (SYNGENTA CROP PROTECTION AG, priority 2020, published 2024).

Tests used:
Type in all cases: in vivo
EPHHL [1] = test: Pre-emergence biological efficacy; settings: Euphorbia heterophylla, 312 h, evaluated after 13 days, read-out: damage to plant (100=total damage to plant; 0=no damage to plant)
Summary of the method: (§1)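 Damage rated on a 0–100 scale (100 = total) 13 days after spraying in glasshouse conditions of 24/18° C., 15 h light, 50% humidity. Spray applied one day after sowing, using aqueous dilution in 0.2% Genapol XO80 of a 50 g/l IF50 solvent-emulsifier formulation, at the desired final dose.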

LOLPE [2] = test: Pre-emergence biological efficacy; settings: Lolium perenne, 312 h, evaluated after 13 days, read-out: damage to plant (100=total damage to plant; 0=no damage to plant)
Summary of the method: as §1

IPOHE [3] = test: Pre-emergence biological efficacy; settings: Ipomoea hederacea, 312 h, evaluated after 13 days, read-out: damage to plant (100=total damage to plant; 0=no damage to plant)
Summary of the method: as §1

AMAPA [4] = test: Pre-emergence biological efficacy; settings: Amaranthus palmeri, 312 h, evaluated after 13 days, read-out: damage to plant (100=total damage to plant; 0=no damage to plant)
Summary of the method: as §1

ECHCG [5] = test: Pre-emergence biological efficacy; settings: Echinochloa crus-galli, 312 h, evaluated after 13 days, read-out: damage to plant (100=total damage to plant; 0=no damage to plant)
Summary of the method: as §1

SETFA [6] = test: Pre-emergence biological efficacy; settings: Setaria faberi, 312 h, evaluated after 13 days, read-out: damage to plant (100=total damage to plant; 0=no damage to plant)
Summary of the method: as §1

ELEIN = test: Post-emergence biological efficacy; settings: 312 h, evaluated after 13 days, read-out: damage to plant (100=total damage to plant; 0=no damage to plant)
Summary of the method: (§2)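 Pot-grown plants were raised 14 days in a glasshouse (24/19 °C day/night, 16 h light), then sprayed post-emergence with an aqueous dilution of a 50 g/l IF50 formulation stock in 0.2% Genapol XO80. They were kept at 24/18 °C, 15 h light, 50% humidity, and visually scored for damage after 13 days (0 = none, 100 = total).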

EPHHL [7] = test: Post-emergence biological efficacy; settings: Euphorbia heterophylla, 312 h, evaluated after 13 days, read-out: damage to plant (100=total damage to plant; 0=no damage to plant)
Summary of the method: as §2

LOLPE [8] = test: Post-emergence biological efficacy; settings: Lolium perenne, 312 h, evaluated after 13 days, read-out: damage to plant (100=total damage to plant; 0=no damage to plant)
Summary of the method: as §2

IPOHE [9] = test: Post-emergence biological efficacy; settings: Ipomoea hederacea, 312 h, evaluated after 13 days, read-out: damage to plant (100=total damage to plant; 0=no damage to plant)
Summary of the method: as §2

AMAPA [10] = test: Post-emergence biological efficacy; settings: Amaranthus palmeri, 312 h, evaluated after 13 days, read-out: damage to plant (100=total damage to plant; 0=no damage to plant)
Summary of the method: as §2

ECHCG [11] = test: Post-emergence biological efficacy; settings: Echinochloa crus-galli, 312 h, evaluated after 13 days, read-out: damage to plant (100=total damage to plant; 0=no damage to plant)
Summary of the method: as §2

SETFA [12] = test: Post-emergence biological efficacy; settings: Setaria faberi, 312 h, evaluated after 13 days, read-out: damage to plant (100=total damage to plant; 0=no damage to plant)
Summary of the method: as §2

CHEAL = test: Post-emergence biological efficacy; settings: Chenopodium album, 312 h, evaluated after 13 days, read-out: damage to plant (100=total damage to plant; 0=no damage to plant)
Summary of the method: as §2

DIGSA = test: Post-emergence biological efficacy; settings: Digitaria sanguinalis, 312 h, evaluated after 13 days, read-out: damage to plant (100=total damage to plant; 0=no damage to plant)
Summary of the method: as §2

Structure (SMILES)	pest or weed control at 250 g/ha (EPHHL [1]) [%]	pest or weed control at 250 g/ha (LOLPE [2]) [%]	pest or weed control at 250 g/ha (IPOHE [3]) [%]	pest or weed control at 250 g/ha (AMAPA [4]) [%]	pest or weed control at 250 g/ha (ECHCG [5]) [%]	pest or weed control at 250 g/ha (SETFA [6]) [%]	pest or weed control at 250 g/ha (ELEIN) [%]	pest or weed control at 250 g/ha (EPHHL [7]) [%]	pest or weed control at 250 g/ha (LOLPE [8]) [%]	pest or weed control at 250 g/ha (IPOHE [9]) [%]	pest or weed control at 250 g/ha (AMAPA [10]) [%]	pest or weed control at 250 g/ha (ECHCG [11]) [%]	pest or weed control at 250 g/ha (SETFA [12]) [%]	pest or weed control at 250 g/ha (CHEAL) [%]	pest or weed control at 250 g/ha (DIGSA) [%]
CCOC(=O)C1(C)CC(c2cc(-c3cncc(OC)c3)c(F)cc2Cl)=NO1 (stereo not drawn) [Compound 1-379, Ethyl 3-[2-chloro-4-fluoro-5-(5-methoxy-3-pyridyl)-phenyl]-5-methyl-4H-isoxazole-5-carboxylate]	0	0	0	0	0	0	40	50	10	80	100	40	40	50	60
CCOC(=O)C1(C)CC(c2cc(-c3cnc(F)c(F)c3)c(F)cc2Cl)=NO1 (stereo not drawn) [Compound 1-391, Ethyl 3-[2-chloro-5-(5,6-difluoro-3-pyridyl)-4-fluoro-phenyl]-5-methyl-4H-isoxazole-5-carboxylate]	0	0	0	0	0	0	40	50	10	40	60	40	40	50	50
CCOC(=O)C1(C)CC(c2cc(-c3cnc(F)c(Cl)c3)c(F)cc2Cl)=NO1 (stereo not drawn) [Compound 1-403, Ethyl 3-[2-chloro-5-(5-chloro-6-fluoro-3-pyridyl)-4-fluoro-phenyl]-5-methyl-4H-isoxazole-5-carboxylate]	20	20	10	30	40	0	60	70	20	50	70	40	40	70	70
CCOC(=O)C1(C)CC(c2cc(-c3cnc(F)c(OC)c3)c(F)cc2Cl)=NO1 (stereo not drawn) [Compound 1-415, Ethyl 3-[2-chloro-4-fluoro-5-(6-fluoro-5-methoxy-3-pyridyl)-phenyl]-5-methyl-4H-isoxazole-5-carboxylate]	0	0	0	0	0	0	70	90	20	90	100	70	90	100	40
CCOC(=O)C1(C)CC(c2cc(-c3cnc(Cl)c(Cl)c3)c(F)cc2Cl)=NO1 (stereo not drawn) [Compound 1-427, Ethyl 3-[2-chloro-5-(5,6-dichloro-3-pyridyl)-4-fluoro-phenyl]-5-methyl-4H-isoxazole-5-carboxylate]	0	0	0	0	0	0	60	70	20	80	100	80	100	60	40
